Measured values: patent publication EP0816329A1, “Benzoic acid derivatives, process for their preparation and their use for the treatment of diseases” (HOECHST AKTIENGESELLSCHAFT, priority 1996, dated 1998)

Test system: Glucose-6-Phosphatase-System
Test: Glucose-6-phosphatase enzyme test in liver microsomes (phosphate released from glucose-6-phosphate)
Format: biochemical, Wistar-Ratten
Settings: Glucose-6-Phosphat 1 mMol/l, 0,1 mg Mikrosomen-Fraktion, pH 7,0, 20 min, room temperature
Protocol: Die Wirkung der erfindungsgemäßen Verbindungen auf das Glucose-6-Phosphatase-System wurde in einem Enzymtest in Lebermikrosomen untersucht.
Für die Präparation der die Glucose-6-Phosphatase enthaltenden Mikrosomen-Fraktion wurden frische Leber-Organe von männlichen Wistar-Ratten verwendet und wie in der Literatur beschrieben aufgearbeitet [Canfield, W. K. Und Arion, W.J., J. Biol. Chem. 263, 7458-7460, (1988)]. Diese Mikrosomen-Fraktion kann bei -70°C mindestens 2 Monate lang ohne signifikamten Aktivitätsverlust aufbewahrt werden.
Der Nachweis der Glucose-6-Phosphatase-Aktivität wurde wie in der Literatur angegeben (Arion, W. J. in Methods Enzymol. 174, Academic Press 1989, Seite 58 - 67) durch Bestimmung des aus Glucose-6-Phosphat freigesetzten Phosphats durchgeführt. 0,1 ml Testansatz enthielten Glucose-6-Phosphat (1mMol/l), die Testsubstanz, 0,1 mg Mikrosomen-Fraktion und 100 mMol/l HEPES-Puffer (4-(2-Hydroxyethyl)piperazin-1-ethansulfonsäure), pH 7,0. Die Reaktion wurde durch Zugabe des Enzyms gestartet. Nach Ablauf von 20 Minuten bei Raumtemperatur wurde die Reaktion durch Zugabe von 0,2 ml Phosphat-Reagens gestoppt. Die Probe wurde 30 Minuten lang bei 37 °C inkubiert, und die Absorbtion (A) der blauen Farbe anschließend bei 570 nm gemessen. Die inhibitorische Wirksamkeit der Testsubstanz ergab sich durch Vergleich mit einer Kontroll-Reaktion, die keine Testsubstanz enthielt nach der Formel Prozent Hemmung =(A(Kontrolle) - A(Testsubstanz))/(A(Kontrolle))x 100 [formula]
Die hemmende Wirkung der Testsubstanz (Verbindungen 1 - 43) wurde bei den in der nachfolgenden Tabelle 1 angegebenen Konzentrationen der Testsubstanz ermittelt.

[1] = Inhibitorkonzentration 12,5 µM, 12.5 µM

SMILES | % Hemmung [1] | % Hemmung (Inhibitorkonzentration 100 µM)
COc1ccc(C(=O)Nc2ccc(C#Cc3ccc(C)cc3)c(C(=O)O)c2)cc1OC [Beispiel 32] | 61% | –
CC(C)(C)c1ccc(-c2ccc(NC(=O)C3CCCC3)cc2C(=O)O)cc1 [Beispiel 17] | – | 53%
CC(C)(O)C(=O)Nc1ccc(C#Cc2ccccc2)c(C(=O)O)c1 [Beispiel 28] | 60% | –
O=C(Nc1ccc(CCCCCl)c(C(=O)O)c1)Nc1ccc(Cl)c(C(F)(F)F)c1 [Beispiel 4] | – | 66%
O=C(O)c1cc(NC(=O)C2CCCCC2)ccc1C#Cc1ccccc1 [Beispiel 24] | 58% | –
COc1cc(OC)cc(C(=O)Nc2ccc(C#Cc3ccc(C)cc3)c(C(=O)O)c2)c1 [Beispiel 31] | 64% | –
O=C(C=Cc1ccccc1)Nc1ccc(-c2ccc(Cl)s2)c(C(=O)O)c1 [Beispiel 11] | – | 57%
O=C(Nc1ccc(C#Cc2ccccc2)c(C(=O)O)c1)c1ccccc1Cl [Beispiel 20] | 100% | –
COc1cccc(C(=O)Nc2ccc(C#Cc3ccccc3)c(C(=O)O)c2)c1 [Beispiel 18] | 98% | –
O=C(O)c1cc(NC(=O)c2c(F)c(F)c(F)c(F)c2F)ccc1C#Cc1ccccc1 [Beispiel 26] | 54% | –
Cc1ccc(C#Cc2ccc(NC(=O)c3cccc(C(F)(F)F)c3)cc2C(=O)O)cc1 [Beispiel 34] | 50% | –
Cc1ccc(C#Cc2ccc(NC(=O)c3cccc([N+](=O)[O-])c3)cc2C(=O)O)cc1 [Beispiel 38] | 50% | –
COc1ccc2cc(-c3ccc(NC(=O)Cc4ccc(OC)c(OC)c4)cc3C(=O)O)ccc2c1 [Beispiel 2] | – | 60%
Cc1ccc(C#Cc2ccc(NC(=O)C(F)(F)C(F)(F)C(F)(F)F)cc2C(=O)O)cc1 [Beispiel 41] | 71% | –
O=C(Nc1ccc(C#Cc2ccccc2)c(C(=O)O)c1)c1cccc(C(F)(F)F)c1 [Beispiel 23] | 63% | –
Cc1ccc(C#Cc2ccc(NC(=O)CCC3CCCC3)cc2C(=O)O)cc1 [Beispiel 35] | 76% | –
Cc1ccc(C#Cc2ccc(NS(=O)(=O)c3ccc([N+](=O)[O-])cc3)cc2C(=O)O)cc1 [Beispiel 39] | 62% | –
O=C(Nc1ccc(C#Cc2ccccc2)c(C(=O)O)c1)c1cccc([N+](=O)[O-])c1 [Beispiel 25] | 51% | –
COc1ccc2cc(-c3ccc(NC(=O)c4ccco4)cc3C(=O)O)ccc2c1 [Beispiel 6] | – | 61%
O=C(Nc1ccc(-c2ccco2)c(C(=O)O)c1)c1ccc2ccccc2c1 [Beispiel 14] | – | 57%
Cc1ccc(C#Cc2ccc(NC(=O)c3cnc4ccccc4n3)cc2C(=O)O)cc1 [Beispiel 29] | 73% | –
COc1ccc2cc(-c3ccc(NC(=O)CCC4CCCC4)cc3C(=O)O)ccc2c1 [Beispiel 9] | – | 64%

SMILES | % Hemmung [1] | % Hemmung (Inhibitorkonzentration 100 µM)
COc1ccc(OC)c(CC(=O)Nc2ccc(-c3ccc4cc(OC)ccc4c3)c(C(=O)O)c2)c1 [Beispiel 7] | – | 63%
Cc1ccc(C#Cc2ccc(NC(=O)c3cccc4ccccc34)cc2C(=O)O)cc1 [Beispiel 42] | 60% | –
Cc1ccc(C#Cc2ccc(NC(=O)c3ccccc3O)cc2C(=O)O)cc1 [Beispiel 43] | 55% | –
Cc1ccc(C#Cc2ccc(NC(=O)C(C)C)cc2C(=O)O)cc1 [Beispiel 40] | 94% | –
O=C(Nc1ccc(C#Cc2ccccc2)c(C(=O)O)c1)c1cccc(F)c1 [Beispiel 22] | 100% | –
COc1ccc(C(=O)Nc2ccc(C#Cc3ccc(C)cc3)c(C(=O)O)c2)c(OC)c1 [Beispiel 30] | 52% | –
Cc1ccc(C#Cc2ccc(NC(=O)c3cccc(Cl)c3)cc2C(=O)O)cc1 [Beispiel 37] | 55% | –
O=C(Nc1ccc(C#Cc2ccccc2)c(C(=O)O)c1)c1ccc(Cl)cc1Cl [Beispiel 21] | 84% | –
CC(C)(C)CC(=O)Nc1ccc(C#Cc2ccccc2)c(C(=O)O)c1 [Beispiel 27] | 58% | –
O=C(CCCc1ccc(Cl)cc1)Nc1ccc(-c2ccc(Cl)s2)c(C(=O)O)c1 [Beispiel 10] | – | 62%
CC(C)(C)c1ccc(-c2ccc(NC(=O)COc3ccccc3)cc2C(=O)O)cc1 [Beispiel 16] | – | 50%
COc1cccc(C(=O)Nc2ccc(C#Cc3ccc(C)cc3)c(C(=O)O)c2)c1 [Beispiel 36] | 78% | –
Cc1ccc(C#Cc2ccc(NC(=O)c3cc(C(F)(F)F)cc(C(F)(F)F)c3)cc2C(=O)O)cc1 [Beispiel 33] | 77% | –
N#Cc1cccc(C(=O)Nc2ccc(C#Cc3ccccc3)c(C(=O)O)c2)c1 [Beispiel 19] | 98% | –
COc1ccc2cc(-c3ccc(NC(=O)C4CC4)cc3C(=O)O)ccc2c1 [Beispiel 5] | – | 51%
COc1ccc2cc(-c3ccc(NC(=O)C=Cc4ccccc4)cc3C(=O)O)ccc2c1 [Beispiel 1] | – | 53%
O=C(Nc1ccc(-c2cccs2)c(C(=O)O)c1)c1ccc2ccccc2c1 [Beispiel 13] | – | 53%
COc1ccc2cc(-c3ccc(NC(=O)c4cccc(F)c4)cc3C(=O)O)ccc2c1 [Beispiel 8] | – | 77%
O=C(Nc1ccc(-c2ccco2)c(C(=O)O)c1)c1cnc2ccccc2n1 [Beispiel 15] | – | 63%
O=C(Nc1ccc(-c2ccc(Cl)s2)c(C(=O)O)c1)c1ccc2ccccc2c1 [Beispiel 12] | – | 71%
COc1ccc2cc(-c3ccc(NC(=O)c4cccs4)cc3C(=O)O)ccc2c1 [Beispiel 3] | – | 93%
